Patent US10987349B2, “Antitumor agent and bromodomain inhibitor” (FUJIFILM Corporation, priority 2016, dated 2021)

Assays:
[1] = biological target: T1, BRD2 BD1 (Homo sapiens, UniProt P25440); experiment: Binding assay, BRD2 BD1 to acetylated histone H4 Peptide-Biotin (EPIgeneous Binding Domain Kit A); conditions: for inhibition at 0.3 µM: test compound at 300 nmol/L, read-out: Binding inhibition percentage BRD2 BD1
T1 construct: BRD2 BD1, BRD3 BD1 and BRD4 BD1 (Cisbio); purchased Cisbio
Summary of the method: (§1)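 HTRF competition: bromodomain protein (added at 20 nmol/L) and biotinylated tetra-acetyl H4(1-25) peptide (added at 25 nmol/L) were incubated with compound, streptavidin-d2 and anti-GST Eu cryptate for 20 h at room temperature. Inhibition came from the 665/620 nm ratio relative to DMSO; IC50 by four-parameter fit; some compounds were tested only at 300 nmol/L final.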

[2] = biological target: T2, BRD3 BD1 (Homo sapiens, UniProt Q15059); experiment: Binding assay, BRD3 BD1 to acetylated histone H4 Peptide-Biotin (EPIgeneous Binding Domain Kit A); conditions: for inhibition at 0.3 µM: test compound at 300 nmol/L, read-out: Binding inhibition percentage BRD3 BD1
T2 construct: BRD2 BD1, BRD3 BD1 and BRD4 BD1 (Cisbio); purchased Cisbio
Summary of the method: as §1

[3] = biological target: T3, BRD4 BD1 (Homo sapiens, UniProt O60885); experiment: Binding assay, BRD4 BD1 to acetylated histone H4 Peptide-Biotin (EPIgeneous Binding Domain Kit A); conditions: for inhibition at 0.3 µM: test compound at 300 nmol/L, read-out: Binding inhibition percentage BRD4 BD1
T3 construct: BRD2 BD1, BRD3 BD1 and BRD4 BD1 (Cisbio); purchased Cisbio
Summary of the method: as §1

[4] = biological target: T4, BRD4 BD2 (Homo sapiens, UniProt O60885); experiment: Binding assay, BRD4 BD2 to acetylated histone H4 Peptide-Biotin (EPIgeneous Binding Domain Kit B); conditions: for inhibition at 0.3 µM: test compound at 300 nmol/L, read-out: Binding inhibition percentage BRD4 BD2
T4 construct: BRD2 BD2, BRD3 BD2 and BRD4 BD2 (Cisbio); purchased Cisbio
Summary of the method: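 HTRF binding of GST-tagged BD2 (20 nmol/L working stock) to biotinylated acetyl-histone H4 peptide (250 nmol/L working stock), using streptavidin-XL665 and anti-GST Eu cryptate. Incubated 20 h at room temperature; 665/620 nm ratio versus DMSO gives % inhibition; IC50 by four-parameter fit, or % inhibition at 300 nmol/L.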

[5] = system: human acute myeloid leukemia cell line MV4-11; experiment: Cell growth test (Cell Titer Glo) MV4-11; assay type: cell-based; conditions: 3 to 5 days
Text: (§2) The human undifferentiated thymoma cell line Ty-82 (JCRB), the human acute myeloid leukemia cell lines MV4-11 (ATCC), MOLM-13 (ATCC) and RS4-11 (ATCC), the human lymphoma cell line Raji (JCRB), the human cervical epidermoid carcinoma cell line Hela (JCRB), the human lung adenocarcinoma cell line A549 (ATCC), the human colon cancer cell lines DLD1 (DS Pharma) and HCT116 (DS Pharma), and the human pancreatic cancer cell line MIAPACA-2 (ATCC) were used to carry out a cell growth test.
(§3) Ty-82, MV4-11, MOLM-13, RS4-11, Raji and DLD1 were each seeded in a well plate, in which Roswell Park Memorial Institute (RPMI)-1640 medium supplemented with penicillin/streptomycin and fetal bovine serum (FBS) with a final concentration of 10% was placed. Hela was seeded in Dulbecco's Modified Eagle's medium (DMEM) supplemented with penicillin/streptomycin and FBS with a final concentration of 10%. A549 and MIAPACA-2 were each seeded in a well plate, in which Minimum Essential Medium (MEM) supplemented with penicillin/streptomycin and FBS with a final concentration of 10% was placed. HCT116 was seeded in a well plate, in which McCoy's 5A medium supplemented with penicillin/streptomycin and FBS with a final concentration of 10% was placed.
(§4) Thereafter, a medium containing a test compound serially diluted with DMSO, or DMSO, was added to each well of the plate, in which the cells had been seeded, and the obtained mixture was then cultured under conditions of 37° C. and 5% CO2 for 3 to 5 days. Cell Titer Glo reaction solution (Promega) was added to the culture, and the amount of luminescence was then measured using Envision plate reader (PerkinElmer). Since the amount of luminescence is in proportion to the concentration of adenosine triphosphate (ATP) in cells, the amount of luminescence was used as an indicator of the number of living cells. The growth inhibition percentage of the test compound in each concentration was calculated according to the following equation. Growth inhibition percentage (%)=(amount of luminescence in test compound−added well)/(amount of luminescence in DMSO−added well)×100
(§5) The growth inhibition percentage of the test compound in each concentration was plotted by performing a non-linear regression analysis [(log (inhibitor) vs. response—Variable slope (four parameters)], using Graphpad prism 5, and a 50% growth inhibitory concentration [GI50 (nmol/L)] was then calculated.

[6] = system: human acute myeloid leukemia cell line MOLM-13; experiment: Cell growth test (Cell Titer Glo) MOLM-13; assay type: cell-based; conditions: 3 to 5 days
Text: as §2, §3, §4, §5

[7] = system: human colon cancer cell line DLD1; experiment: Cell growth test (Cell Titer Glo) DLD1; assay type: cell-based; conditions: DLD-1, 3 to 5 days
Text: as §2
as §3, with “HCT116 was seeded in a well plate, in which McCoy's 5A medium supplemented with penicillin/streptomycin and FBS with a final concentration of 10% was placed.” left out
as §4, with “well)×100 […]” for “well)×100”

T2 sequence (Q15059 34-140 limits assumed): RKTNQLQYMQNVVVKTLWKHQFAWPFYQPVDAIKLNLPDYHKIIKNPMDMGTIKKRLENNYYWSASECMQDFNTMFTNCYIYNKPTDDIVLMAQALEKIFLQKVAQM
T1 sequence (P25440 74-180 limits assumed): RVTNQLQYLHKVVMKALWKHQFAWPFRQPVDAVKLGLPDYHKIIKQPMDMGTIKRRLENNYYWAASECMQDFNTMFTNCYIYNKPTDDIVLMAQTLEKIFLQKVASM

Structure (SMILES)	IC50 [1] [nM]	inhibition at 0.3 µM [1] [%]	IC50 [2] [nM]	inhibition at 0.3 µM [2] [%]	IC50 [3] [nM]	inhibition at 0.3 µM [3] [%]	IC50 [4] [nM]	inhibition at 0.3 µM [4] [%]	GI50 [5] [nM]	GI50 [6] [nM]	GI50 [7] [nM]
CCn1c(=O)cc(C2CCN(C)CC2)c2cc(C(=O)N(C)c3ccc4c(c3)CCC4)ccc21 [Example 17, N-(2,3-dihydro-1H-inden-5-yl)-1-ethyl-N-methyl-4-(1-methylpiperidin-4-yl)-2-oxo-1,2-dihydroquinoline-6-carboxamide]	5	93	3	94	3	94	10	88	8	16	165
CCn1c(=O)cc(N2CCOCC2)c2cc(-n3c(-c4ccc(Cl)cc4)c[nH]c3=O)ccc21 [Example 245, 6-(5-(4-chlorophenyl)-2-oxo-2,3-dihydro-1H-imidazol-1-yl)-1-ethyl-4-(morpholin-4-yl)quinolin-2(1H)-one]	61	79	37	90	20	91	3	88	15	37	1340
CCn1c(=O)cc(C2CCN(C)CC2)c2cc(C(=O)N(C)c3ccc(C)cc3)ccc21 [Example 14, 1-Ethyl-N-methyl-N-(4-methylphenyl)-4-(1-methylpiperidin-4-yl)-2-oxo-1,2-dihydroquinoline-6-carboxamide]	9	93	4	94	5	93	27	82	16	32	361
